# Results reported in ChEMBL document CHEMBL1154903, “Cembranoids from the octocoral Sarcophyton ehrenbergi” (J Nat Prod, 2010).
# Active and inactive are the calls of the source. No cut-off for these calls is given here.
# Columns and labels:
# [1] = system: HT-29; assay: Cytotoxicity against human HT-29 cells by MTT assay; type: functional, cell-based
# [2] = system: P388; assay: Cytotoxicity against mouse P388 cells by MTT assay; type: functional, cell-based
# [3] = system: HEL; assay: Cytotoxicity against HEL cells by MTT assay; type: cell-based; settings: Homo sapiens
# [4] = system: Human betaherpesvirus 5; assay: Antiviral activity against human cytomegalovirus infected HEL cells after 7 days by; type: functional, organism-based; settings: Human betaherpesvirus 5, HEL, 168 h
# [5] = system: Salmonella enterica; assay: Antibacterial activity against Salmonella enteritidis ATCC 13076 at 250 ug/ml by disk diffusion method; type: functional, organism-based; settings: Salmonella enterica subsp. enterica serovar Enteritidis
IC50 [4] [µM],Compound,IC50 [1] [µg/mL],IC50 [2] [µg/mL],IC50 [3] [µg/mL],Activity [5]
4.7,C/C1=C\C=C(\C(C)C)CC[C@@]2(C)O[C@H](C1)C[C@@](C)(O)CC[C@@H]2O [EHRENBEROXIDE B],> 50,> 50,> 50,inactive
5.8,COC(=O)/C1=C/CC/C(C)=C/[C@@H]2OCC(C)=C2CC[C@@]2(C)O[C@@H]2CC1 [LOBOPHYNIN C],> 50,> 50,> 50,inactive
24.8,COC(C)(C)/C1=C/C=C(\C)CC[C@@H]2O[C@@]2(C)CC/C=C(/C(=O)O)CC1 [EHRENBEROXIDE A],> 50,> 50,> 50,inactive
